Experiments:
Assay in all cases: relative viability (nuclei count vs DMSO), 5 days (fraction); higher = more cells survive
[1] = compound: CC(C)Oc1cc(Nc2nc(N[C@@H](C)c3ccc(F)cn3)ncc2Cl)n[nH]1 [AZ23]
Summary of the method: (§1)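 Cells of lung cancer lines were placed in 1536-well plates and kept overnight at 37 °C. Pinning then delivered five library-drug doses (not always all listed), spaced by √10, onto plates anchored with vehicle, and the cells were left 5 days without changing medium. One step fixed, permeabilised and stained them with Hoechst, and MetaXpress counted nuclei in 4× images. Viability, as a median over plates, is treated-well nuclei divided by vehicle-well nuclei, with acceptance only at control CV below 25% and at least one doubling.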

[2] = compound: CC(C)S(=O)(=O)C1=CC=CC=C1NC2=NC(=NC(=C2Cl)N)NC3=C(C=C(C=C3)N4CCC(CC4)C(=O)N)OC [HG-5-88-01]
Summary of the method: as §1

[3] = compound: CCCCCCCCCCCC1=C(O)C(=O)C=C(O)C1=O [Embelin]
Summary of the method: as §1

[4] = compound: C[C@@H]1CN(CC(=O)Nc2ccc3c(c2)Cc2cccc(-c4cc(=O)cc(N5CCOCC5)o4)c2S3)C[C@H](C)O1
Summary of the method: as §1

[5] = compound: Clc1ccc(Nc2nnc(Cc3ccncc3)c3ccccc23)cc1 [Vatalanib]
Summary of the method: as §1

Cell Line | relative viability ([1]; 0.01 µM) | relative viability ([1]; 0.03162 µM) | relative viability ([1]; 0.3162 µM) | relative viability ([2]; 0.04 µM) | relative viability ([2]; 0.1265 µM) | relative viability ([2]; 0.4 µM) | relative viability ([2]; 1.265 µM) | relative viability ([2]; 4 µM) | relative viability ([3]; 0.08 µM) | relative viability ([3]; 0.8 µM) | relative viability ([3]; 2.53 µM) | relative viability ([3]; 8 µM) | relative viability ([4]; 0.04 µM) | relative viability ([4]; 0.1265 µM) | relative viability ([4]; 0.4 µM) | relative viability ([4]; 4 µM) | relative viability ([5]; 0.04 µM) | relative viability ([5]; 0.1265 µM) | relative viability ([5]; 0.4 µM) | relative viability ([5]; 1.265 µM) | relative viability ([5]; 4 µM)
HCC-827 | 1.06 | 1.13 | 1.08 | 1.06 | 1.05 | 1.06 | 1.03 | 0.615 | 1.03 | 1.11 | 1.09 | 1.09 | 1.05 | 1.04 | 1.08 | 1.07 | 1.02 | 0.949 | 0.924 | 1.04 | 0.996
LOU-NH91 | 0.921 | 1.08 | 1.01 | 0.912 | 0.904 | 0.866 | 0.612 | 0.629 | 1.02 | 1.27 | 0.991 | 0.864 | 0.943 | 0.989 | 0.966 | 0.876 | 0.925 | 0.936 | 0.816 | 0.876 | 0.921
NCI-H1650 | 0.826 | 1.17 | 1.12 | 0.904 | 0.92 | 0.812 | 0.871 | 0.723 | 0.994 | 1.08 | 0.942 | 0.877 | 0.95 | 0.999 | 0.949 | 0.769 | 1.06 | 0.851 | 0.799 | 0.818 | 0.851
PC-14 | 0.748 | 1.22 | 1.08 | 1.05 | 0.985 | 0.901 | 0.735 | 0.38 | 0.997 | 1.15 | 1 | 1.06 | 1 | 0.943 | 1.02 | 0.863 | 1.01 | 0.921 | 0.905 | 0.904 | 0.958
RERF-LC-KJ | 1.08 | 0.987 | 1.03 | 1.05 | 0.992 | 0.975 | 0.865 | 0.724 | 0.978 | 1.01 | 1.07 | 1 | 1.01 | 1.01 | 0.962 | 0.872 | 1.02 | 0.961 | 1.04 | 0.857 | 0.857
LC-2-ad | 1.17 | 1.04 | 1.02 | 1.08 | 0.998 | 1.01 | 0.948 | 0.802 | 0.986 | 1.14 | 1.09 | 0.95 | 1.07 | 0.969 | 0.993 | 0.903 | 1.02 | 0.861 | 0.793 | 0.963 | 0.948
NCI-H1299 | 1.06 | 1.01 | 1.1 | 0.987 | 1.02 | 0.992 | 0.99 | 1.02 | 1.04 | 1.05 | 0.994 | 1.02 | 1.05 | 0.989 | 1 | 0.898 | 1.05 | 1.01 | 1.02 | 1 | 1.01
HCC-15 | 1.21 | 1.02 | 1.07 | 1.07 | 1.02 | 0.901 | 1 | 0.743 | 1.01 | 1.09 | 1.01 | 0.964 | 1.09 | 0.898 | 0.97 | 0.903 | 1.07 | 1.04 | 1.06 | 0.983 | 1.08
NCI-H661 | 1.05 | 1.04 | 0.967 | 0.992 | 1.01 | 1.1 | 1.01 | 1.01 | 1.01 | 1.06 | 1.02 | 1.04 | 0.864 | 0.97 | 0.951 | 0.916 | 0.975 | 0.971 | 0.983 | 0.906 | 0.988
NCI-H3122 | 1.12 | 1.13 | 1.06 | 0.865 | 0.585 | 0.254 | 0.236 | 0.169 | 0.986 | 1.05 | 1.01 | 1.07 | 1.05 | 0.993 | 1.03 | 0.883 | 1.01 | 0.975 | 1.02 | 0.959 | 0.98
EKVX | 0.932 | 1.11 | 0.976 | 0.923 | 1.02 | 0.875 |  | 0.934 | 0.966 | 1.02 | 0.964 | 1.03 | 0.975 | 0.971 | 0.898 | 0.882 | 0.934 | 0.849 | 0.975 | 0.818 | 0.871
SK-MES-1 | 0.745 | 1.08 | 1.08 | 0.983 | 0.962 | 0.966 | 0.924 | 1.05 | 1.02 | 1.07 | 1.13 | 0.954 | 1.09 | 1.05 | 0.923 | 0.8 | 1.03 | 0.913 | 1.09 | 0.971 | 0.893

From the supplement of paper PMC10307832
